This is an account of results in ChEMBL document CHEMBL1144449, “Design, synthesis, and evaluation of orally active 4-(2,4-difluoro-5-(methoxycarbamoyl)phenylamino)pyrrolo[2,1-f][1,2,4]triazines as dual vascular endothelial growth factor receptor-2 and fibroblast growth factor receptor-1 inhibitors” (J Med Chem, 2005).

Series [1] can be described thus: Total time required to reach maximum plasma concentration after administration of 10 mg/kg dose po in mouse. It is filed as ADME, organism-based. Details: dose 10 mg/kg, route oral.
The nature of series [2]: Maximum plasma concentration determined after administration of 10 mg/kg dose po in mouse. It is filed as ADME, organism-based. More on the design: dose 10 mg/kg, route oral.
Series [3] can be described thus: Plasma level after 1 hour of oral administration of 10 mg/kg compound in mouse.
A short description of series [4]: Steady-state volume of distribution determined after administration of 5 mg/kg dose iv in mouse. It is filed as ADME, organism-based. To be noted: in vivo, read-out: Vss. Details: dose 5 mg/kg, route intravenous.
Series [5] in a line: Half-life determined after administration of 10 mg/kg dose po in mouse. Conditions: in vivo. It counts as ADME, organism-based. More on the design: dose 10 mg/kg, route oral.
Series [6] is described as follows: Half-life determined after administration of 5 mg/kg dose iv in mouse. It counts as ADME, organism-based. Details: dose 5 mg/kg, route intravenous. Conditions: in vivo.
Series [7] deals with Protein kinase C alpha type (Homo sapiens, UniProt P17252). Nature of the series: Inhibition of human protein kinase C alpha.
Series [8] in a line: Area under curve determined after administration of 10 mg/kg dose po in mouse. Conditions: in vivo. More on the design: dose 10 mg/kg, route oral. It is filed as ADME, organism-based.
Series [9] can be described thus: Oral bioavailability determined after administration of 10 mg/kg dose po in mouse. Conditions: in vivo. It counts as ADME, organism-based.
The target of series [10] is Receptor tyrosine-protein kinase erbB-2 (Homo sapiens, UniProt P04626). Nature of the series: Inhibition against human HER2 kinase.
The nature of series [11]: Mean residence time determined after administration of 5 mg/kg dose iv in mouse. It is filed as ADME, organism-based. Details: dose 5 mg/kg, route intravenous. Conditions: in vivo.
For series [12], the target named is Fibroblast growth factor receptor 1 (Homo sapiens, UniProt P11362). Nature of the series: Inhibition of human fibroblast growth factor receptor 1.
Series [13] can be described thus: Maximum plasma concentration determined after administration of 5 mg/kg dose iv in mouse. It is filed as ADME, organism-based. Details: dose 5 mg/kg, route intravenous.
Series [14] concerns the target Tyrosine-protein kinase Lck (Homo sapiens, UniProt P06239). Nature of the series: Inhibition of human p56 lck tyrosine kinase.
A short description of series [15]: Area under curve determined after administration of 5 mg/kg dose iv in mouse. Details: dose 5 mg/kg, route intravenous. Conditions: in vivo. It is filed as ADME, organism-based.
Series [16] is described as follows: Plasma level after 4 hours of oral administration of 10 mg/kg compound in mouse.
Series [17] is described as follows: Systemic plasma clearance determined after administration of 5 mg/kg dose iv in mouse. More on the design: dose 5 mg/kg, route intravenous. It is filed as ADME, organism-based.
For series [18], the system named is Mus musculus. Nature of the series: Tumor growth inhibition of L2987 human lung carcinoma xenografts implanted subcutaneously in athymic mouse after oral administration of 150 mg/kg/day. Conditions: read-out: TGI. It is filed as functional. For orientation: In xenograft studies the graft and the host belong to different species.
A short description of series [19]: Mean residence time determined after administration of 10 mg/kg dose po in mouse. It is filed as ADME, organism-based. More on the design: dose 10 mg/kg, route oral. Conditions: in vivo.
Series [20] addresses Fibroblast growth factor receptor (Homo sapiens, UniProt P22607+P11362+P22455+P21802). Nature of the series: Inhibition of FGF-stimulated human umbilical vein endothelial cell proliferation. It is filed as functional, cell-based.
In series [21] the test system is Mus musculus. Nature of the series: Tumor growth inhibition of L2987 human lung carcinoma xenografts implanted subcutaneously in athymic mouse after oral administration of 50 mg/kg/day. It counts as functional. Conditions: read-out: TGI.
Series [22] deals with Mus musculus. Nature of the series: Tumor growth inhibition of L2987 human lung carcinoma xenografts implanted subcutaneously in athymic mouse after oral administration of 100 mg/kg/day. To be noted: read-out: TGI. It counts as functional.
The target in series [23] is Cyclin-dependent kinase 2 (Homo sapiens, UniProt P24941). Nature of the series: Inhibition of human cyclin-dependent kinase 2.

Some results are limits rather than exact numbers.

Fibroblast growth factor receptor 1, sequence (P11362 whole entry): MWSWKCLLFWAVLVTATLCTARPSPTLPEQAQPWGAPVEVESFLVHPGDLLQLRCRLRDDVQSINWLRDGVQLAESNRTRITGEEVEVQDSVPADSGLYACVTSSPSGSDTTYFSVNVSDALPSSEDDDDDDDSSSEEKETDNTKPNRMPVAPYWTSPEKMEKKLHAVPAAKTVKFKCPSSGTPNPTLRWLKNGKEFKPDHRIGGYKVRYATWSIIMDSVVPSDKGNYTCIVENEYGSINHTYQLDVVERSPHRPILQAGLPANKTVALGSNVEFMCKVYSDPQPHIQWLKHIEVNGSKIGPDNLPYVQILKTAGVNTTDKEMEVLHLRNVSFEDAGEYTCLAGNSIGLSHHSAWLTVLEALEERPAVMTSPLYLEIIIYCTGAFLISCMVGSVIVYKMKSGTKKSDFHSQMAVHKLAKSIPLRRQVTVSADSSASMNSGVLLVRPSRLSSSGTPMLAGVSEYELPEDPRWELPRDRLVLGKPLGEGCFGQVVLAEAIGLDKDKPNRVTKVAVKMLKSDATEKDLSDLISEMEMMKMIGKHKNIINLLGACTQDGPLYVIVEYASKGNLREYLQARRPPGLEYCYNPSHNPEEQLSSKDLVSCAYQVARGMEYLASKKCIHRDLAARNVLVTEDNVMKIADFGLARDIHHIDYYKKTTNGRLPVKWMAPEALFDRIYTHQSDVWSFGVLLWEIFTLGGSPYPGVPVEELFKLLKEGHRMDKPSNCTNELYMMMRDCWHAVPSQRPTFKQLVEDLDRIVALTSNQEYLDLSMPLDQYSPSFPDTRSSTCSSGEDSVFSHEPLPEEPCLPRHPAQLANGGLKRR
Receptor tyrosine-protein kinase erbB-2, sequence (P04626 whole entry): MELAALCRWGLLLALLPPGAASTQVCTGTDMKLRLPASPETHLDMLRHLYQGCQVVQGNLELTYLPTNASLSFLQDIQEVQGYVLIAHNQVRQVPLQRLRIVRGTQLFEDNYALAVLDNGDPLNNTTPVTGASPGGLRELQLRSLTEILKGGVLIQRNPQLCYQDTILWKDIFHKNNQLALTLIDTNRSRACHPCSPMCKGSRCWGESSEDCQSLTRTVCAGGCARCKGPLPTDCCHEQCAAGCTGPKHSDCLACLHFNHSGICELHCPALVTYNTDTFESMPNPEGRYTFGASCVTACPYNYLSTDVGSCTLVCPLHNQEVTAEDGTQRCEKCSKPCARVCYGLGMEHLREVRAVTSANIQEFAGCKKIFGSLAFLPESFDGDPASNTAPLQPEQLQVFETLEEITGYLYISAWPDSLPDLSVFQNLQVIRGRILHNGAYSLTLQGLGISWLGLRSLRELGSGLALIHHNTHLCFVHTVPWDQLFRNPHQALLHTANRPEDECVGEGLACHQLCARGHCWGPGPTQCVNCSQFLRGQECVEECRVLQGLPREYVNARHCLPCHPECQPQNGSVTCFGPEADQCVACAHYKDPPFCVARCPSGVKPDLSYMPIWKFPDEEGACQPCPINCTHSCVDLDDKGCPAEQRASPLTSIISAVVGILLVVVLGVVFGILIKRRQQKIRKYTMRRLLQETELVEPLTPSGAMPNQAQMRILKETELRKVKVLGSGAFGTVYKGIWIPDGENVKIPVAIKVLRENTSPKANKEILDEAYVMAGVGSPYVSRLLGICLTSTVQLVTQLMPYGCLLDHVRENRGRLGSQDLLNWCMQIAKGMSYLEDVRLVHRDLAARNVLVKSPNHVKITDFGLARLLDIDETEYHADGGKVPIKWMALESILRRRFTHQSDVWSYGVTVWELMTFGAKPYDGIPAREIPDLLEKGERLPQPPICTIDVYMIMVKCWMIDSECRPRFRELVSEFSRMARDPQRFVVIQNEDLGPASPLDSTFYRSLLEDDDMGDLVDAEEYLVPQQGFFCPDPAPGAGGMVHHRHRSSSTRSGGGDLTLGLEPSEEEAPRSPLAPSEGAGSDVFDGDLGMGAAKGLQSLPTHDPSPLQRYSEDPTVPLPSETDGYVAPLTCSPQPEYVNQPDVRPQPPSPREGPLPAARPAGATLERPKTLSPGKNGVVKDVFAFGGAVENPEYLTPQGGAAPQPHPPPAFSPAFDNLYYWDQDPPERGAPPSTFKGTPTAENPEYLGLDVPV
Tyrosine-protein kinase Lck, sequence (P06239 whole entry): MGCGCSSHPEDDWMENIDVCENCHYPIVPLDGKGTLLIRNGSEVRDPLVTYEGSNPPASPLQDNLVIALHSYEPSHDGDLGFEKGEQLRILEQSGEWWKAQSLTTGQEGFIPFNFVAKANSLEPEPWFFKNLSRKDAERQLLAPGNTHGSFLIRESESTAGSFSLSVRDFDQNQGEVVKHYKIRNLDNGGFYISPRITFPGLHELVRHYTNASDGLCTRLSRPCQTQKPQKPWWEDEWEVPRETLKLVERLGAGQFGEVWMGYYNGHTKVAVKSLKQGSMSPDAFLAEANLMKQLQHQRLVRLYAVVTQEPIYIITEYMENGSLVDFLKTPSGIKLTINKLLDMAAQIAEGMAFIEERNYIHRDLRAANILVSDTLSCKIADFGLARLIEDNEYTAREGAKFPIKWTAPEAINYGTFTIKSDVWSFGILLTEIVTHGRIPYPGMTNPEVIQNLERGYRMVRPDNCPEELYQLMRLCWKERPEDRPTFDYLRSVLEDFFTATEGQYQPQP

As a reminder, the Tmax is the time from dosing to the highest level. A word on the Cmax: it is the highest concentration seen after dosing. As usually defined, the half-life is how long it takes for the measured level to halve. A high value points to slow loss. As a reminder, the IC50 is the point on the concentration scale where inhibition reaches its midpoint. Higher therefore signals weaker potency in that assay. The term AUC denotes the area under the concentration-time curve, a measure of exposure. Higher therefore signals more exposure. As a reminder, the bioavailability is dose-corrected exposure relative to a reference, in per cent. The term MRT denotes the average time that molecules of a dose stay in the body. Broadly, the clearance is the rate of elimination divided by the concentration. The low end stands for inefficient removal, the high end for efficient removal. In the case of `CONC(=O)c1cc(Nc2ncnn3cc(-c4nnc(C(F)(F)S(C)(=O)=O)o4)c(C(C)C)c23)c(F)cc1F`, the time to peak (Tmax) in series [1] was 0.5 h. For the same compound, the highest concentration (Cmax) stood at 27.7 µM in [2] and 23.7 µM in series [13]. This compound came in with a concentration at 1 h in [3] of 26.6 µM. Also, the Vd in series [4] was found to be 0.45 L/kg. Further, the half-life is 3.6 h in series [5] and 2.5 h in series [6]. Further, the half-inhibitory concentration (IC50) in series [7] was above 50 µM; in series [10] it was above 25 µM; in [12], 0.22 µM; in series [14] it was 7.8 µM; in series [20], 0.13 µM; in series [23] it was above 50 µM. Also, the results for the AUC in series [8] and in series [15] were 155 µM·h and 97.4 µM·h, respectively. The compound also returned a bioavailability in [9] of 79%. Moreover, the MRT in series [11] stood at 4.9 h; in [19], 5.2 h. The concentration at 4 h in series [16] was determined as 13.8 µM. Further, the clearance in [17] worked out at 0.0918 L/h/kg. Moreover, the inhibition in vivo at 150 mg/kg/day in the series on Mus musculus [18] stood at 94.2%. The inhibition in vivo at 50 mg/kg/day in the series with Mus musculus [21] is 63.9%. The inhibition in vivo at 100 mg/kg/day in the series on Mus musculus [22] was found to be 87.5%.
